Experimental data as given in patent US20170000133A1, “BENZOXABOROLE FUNGICIDES” (SYNGENTA PARTICIPATIONS AG, priority 2013, published 2017).

What was measured:
Phytophthora infestans = experiment: whole plant or invertebrate; assay type: in vivo; settings: in Solanum lycopersicum, foliar, read-out: disease control
Pythium ultimum = Pythium ultimum / liquid culture (seedling damping off); assay type: cell-based; settings: Globisporangium ultimum; 200 ppm; potato dextrose broth, 24° C., 2-3 days after application; read-out: disease control (inhibition of growth determined photometrically)
[1] = test system: Monographella nivalis (Microdochium nivale); experiment: Monographella nivalis (Microdochium nivale) / liquid culture (foot rot cereals); assay type: cell-based; settings: PDB potato dextrose broth, 24° C., 4-5 days after application, read-out: disease control (inhibition of growth determined photometrically)
Plasmopara viticola = experiment: whole plant or invertebrate; assay type: in vivo; settings: foliar, read-out: disease control
[2] = test system: Glomerella lagenarium (Colletotrichum lagenarium); experiment: Glomerella lagenarium (Colletotrichum lagenarium) / liquid culture (anthracnose); assay type: cell-based; settings: Colletotrichum orbiculare, PDB potato dextrose broth, 24° C., 3-4 days after application, read-out: disease control (inhibition of growth measured photometrically)
In short: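 Conidia of G. lagenarium from cryogenic storage were suspended in potato dextrose broth and added to test compound in DMSO at 200 ppm. Plates were incubated at 24° C, and growth inhibition was read photometrically 3-4 days after application.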

[3] = test system: Thanatephorus cucumeris (Rhizoctonia solani); experiment: Thanatephorus cucumeris (Rhizoctonia solani) / liquid culture (foot rot, damping-off); assay type: cell-based; settings: PDB potato dextrose broth, 24° C., 3-4 days after application, read-out: disease control (inhibition of growth determined photometrically)
In short: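 Mycelial fragments from fresh liquid culture were suspended in potato dextrose broth and added to compound in DMSO at 200 ppm. After 3-4 days at 24 °C, growth inhibition was measured photometrically.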

[4] = test system: Mycosphaerella graminicola (Septoria tritici); experiment: Mycosphaerella graminicola (Septoria tritici) / liquid culture (Septoria blotch); assay type: cell-based; settings: Zymoseptoria tritici, PDB potato dextrose broth, 24° C., 4-5 days after application, read-out: disease control (inhibition of growth determined photometrically)
In short: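 Conidia from cryostorage were suspended in potato dextrose broth and added to test compound in DMSO at 200 ppm in microtiter wells. Plates were incubated at 24° C and growth inhibition measured photometrically 4-5 days after application.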

Fusarium culmorum = experiment: microbe, parasite or virus in culture; assay type: cell-based; settings: read-out: disease control (inhibition of growth determined visually)
Gaeumannomyces graminis = Gaeumannomyces graminis / liquid culture (take-all of cereals); assay type: cell-based; settings: PDB potato dextrose broth, 24° C., 4-5 days after application, read-out: disease control (inhibition of growth determined photometrically)
In short: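 Cryo-stored mycelial fragments in potato dextrose broth exposed to compound in DMSO at 200 ppm. Incubated at 24 °C; growth inhibition read photometrically 4–5 days after application.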

[5] = test system: Mycosphaerella arachidis (Cercospora arachidicola); experiment: Mycosphaerella arachidis (Cercospora arachidicola) / liquid culture (early leaf spot); assay type: cell-based; settings: PDB potato dextrose broth, 24° C., 4-5 days after application, read-out: disease control (inhibition of growth determined photometrically)
In short: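 Conidia from cryogenic storage mixed into potato dextrose broth and added to compound at 200 ppm in DMSO. Incubation at 24° C.; growth inhibition read photometrically 4-5 days after application.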

Structure (SMILES)	pest or weed control at 200 ppm (Phytophthora infestans) [%]	inhibition at 200 ppm (Pythium ultimum) [%]	inhibition at 200 ppm [1] [%]	pest or weed control at 200 ppm (Plasmopara viticola) [%]	melting point [°C]	inhibition at 200 ppm [2] [%]	inhibition at 200 ppm [3] [%]	inhibition at 200 ppm [4] [%]	inhibition at 200 ppm (Fusarium culmorum) [%]	inhibition at 200 ppm (Gaeumannomyces graminis) [%]	inhibition at 200 ppm [5] [%]
O=C(NCCSCc1ccccc1)c1cc2c(cc1Cl)COB2O [Compound 59]	≥ 80	≥ 80	–	–	–	–	–	–	–	–	–
O=C(NCc1ccc(Cl)nc1)c1cc2c(cc1F)COB2O [Compound 138]	≥ 80	≥ 80	–	–	–	–	–	–	–	–	–
O=C(NCC1CCCO1)c1cc2c(cc1F)COB2O (stereo not shown) [Compound 94]	≥ 80	≥ 80	–	–	–	–	–	–	–	–	–
N#CCCOC(=O)c1cc2c(cc1Cl)COB2O [Compound 231]	≥ 80	≥ 80	–	–	–	–	–	–	–	–	–
C#CC1(NC(=O)c2cc3c(cc2F)COB3O)CCCCC1 [Compound 90]	≥ 80	≥ 80	≥ 80	–	–	–	–	–	–	–	–
CC(=O)c1sc(NC(=O)c2cc3c(cc2F)COB3O)nc1C [Compound 181]	≥ 80	≥ 80	≥ 80	–	–	–	–	–	–	–	–
O=C(NCc1ccccc1OC(F)(F)F)c1cc2c(cc1F)COB2O [Compound 128]	≥ 80	≥ 80	–	–	–	–	–	–	–	–	–
COC(=O)c1cc2cc(NC(=O)c3cc4c(cc3F)COB4O)ccc2s1 [Compound 163]	≥ 80	≥ 80	–	–	–	–	–	–	–	–	–
O=C(NCc1ccccc1F)c1cc2c(cc1F)COB2O [Compound 107]	≥ 80	≥ 80	–	≥ 80	175 to 177	≥ 80	–	–	–	–	–
COC(=O)C(C)OC(=O)c1cc2c(cc1Cl)COB2O (stereo not shown) [Compound 206]	≥ 80	≥ 80	–	–	–	–	≥ 80	–	–	–	–
Cc1cccc(Cl)c1NC(=O)c1cc2c(cc1Cl)COB2O [Compound 114]	≥ 80	–	≥ 80	≥ 80	–	≥ 80	–	≥ 80	≥ 80	–	–
C#CC(OC(=O)c1cc2c(cc1Cl)COB2O)c1ccccc1 (stereo not shown) [Compound 211]	≥ 80	≥ 80	≥ 80	≥ 80	–	≥ 80	≥ 80	≥ 80	–	–	–
O=C(Nc1cc(-c2ccccc2)[nH]n1)c1cc2c(cc1F)COB2O [Compound 182]	≥ 80	≥ 80	–	≥ 80	–	–	–	–	–	–	–
COc1ccc(-c2ccccc2)cc1NC(=O)c1cc2c(cc1Cl)COB2O [Compound 129]	≥ 80	≥ 80	≥ 80	–	–	–	–	≥ 80	–	≥ 80	–
O=C(NCc1ccc2c(c1)OCCO2)c1cc2c(cc1Cl)COB2O [Compound 87]	≥ 80	≥ 80	–	–	–	–	–	–	–	–	–
O=C(OCCOc1ccc(Cl)cc1)c1ccc2c(c1)B(O)OC2 [Compound 352]	–	≥ 80	≥ 80	–	122 to 124	–	≥ 80	≥ 80	–	≥ 80	≥ 80
COc1ccc(CNC(=O)c2cc3c(cc2F)COB3O)cc1 [Compound 124]	≥ 80	≥ 80	–	≥ 80	–	–	–	–	–	–	–

Structure (SMILES)	pest or weed control at 200 ppm (Phytophthora infestans) [%]	inhibition at 200 ppm (Pythium ultimum) [%]	inhibition at 200 ppm [1] [%]	pest or weed control at 200 ppm (Plasmopara viticola) [%]	melting point [°C]	inhibition at 200 ppm [2] [%]	inhibition at 200 ppm [3] [%]	inhibition at 200 ppm [4] [%]	inhibition at 200 ppm (Fusarium culmorum) [%]	inhibition at 200 ppm (Gaeumannomyces graminis) [%]	inhibition at 200 ppm [5] [%]
O=C(NCc1ccccc1C(F)(F)F)c1cc2c(cc1F)COB2O [Compound 132]	≥ 80	≥ 80	≥ 80	≥ 80	–	≥ 80	–	–	–	≥ 80	–
O=C(NCc1cccc(Cl)c1)c1cc2c(cc1F)COB2O [Compound 119]	≥ 80	≥ 80	–	≥ 80	–	–	–	–	–	–	–
CCOC(=O)C1CC=CCC1NC(=O)c1cc2c(cc1F)COB2O (stereo not shown) [Compound 78]	≥ 80	≥ 80	–	–	–	–	–	–	–	≥ 80	–
CC(C)c1ccc(NC(=O)c2cc3c(cc2F)COB3O)cc1 [Compound 146]	–	≥ 80	≥ 80	–	184 to 186	≥ 80	–	≥ 80	≥ 80	–	–
O=C(OCc1ccc(C(F)(F)F)nc1)c1cc2c(cc1Cl)COB2O [Compound 217]	≥ 80	≥ 80	≥ 80	–	–	≥ 80	–	–	–	≥ 80	–
O=C(OCC(F)F)c1cc2c(cc1Cl)COB2O [Compound 236]	≥ 80	≥ 80	≥ 80	–	–	≥ 80	–	≥ 80	–	≥ 80	–
O=C(NCc1ccc2c(c1)OCCO2)c1cc2c(cc1F)COB2O [Compound 121]	≥ 80	≥ 80	–	≥ 80	–	–	–	–	–	–	–
CC(C#N)OC(=O)c1cc2c(cc1Cl)COB2O (stereo not shown) [Compound 193]	≥ 80	≥ 80	–	–	–	–	–	–	–	–	–
COC(=O)c1sccc1NC(=O)c1cc2c(cc1F)COB2O [Compound 186]	≥ 80	≥ 80	≥ 80	≥ 80	302 to 304	–	–	–	–	–	–
O=C(NCc1cccc(Cl)c1)c1cc2c(cc1Cl)COB2O [Compound 85]	≥ 80	≥ 80	–	≥ 80	263 to 265	–	–	–	–	≥ 80	–
Cc1cccc(Cl)c1NC(=O)c1cc2c(cc1F)COB2O [Compound 150]	≥ 80	≥ 80	≥ 80	–	212 to 214	≥ 80	–	–	≥ 80	–	–
CC(=O)C(C)OC(=O)c1cc2c(cc1Cl)COB2O (stereo not shown) [Compound 451]	–	≥ 80	≥ 80	≥ 80	102 to 104	–	–	≥ 80	–	≥ 80	≥ 80
C[Si](C)(C)COC(=O)c1cc2c(cc1F)COB2O [Compound 429]	–	≥ 80	≥ 80	≥ 80	122 to 124	≥ 80	≥ 80	≥ 80	≥ 80	≥ 80	–
O=C(NCc1ccco1)c1cc2c(cc1F)COB2O [Compound 144]	–	≥ 80	≥ 80	≥ 80	158 to 160	≥ 80	–	≥ 80	–	≥ 80	≥ 80
O=C(NCc1ccc(Oc2ccccc2)cc1)c1cc2c(cc1F)COB2O [Compound 136]	–	≥ 80	≥ 80	–	178 to 180	≥ 80	–	≥ 80	–	–	≥ 80
O=C(NCCSCc1ccccc1)c1cc2c(cc1F)COB2O [Compound 84]	≥ 80	≥ 80	–	≥ 80	–	–	–	–	–	–	–
